Values quoted from earlier work in patent publication US11607386B2, “Liposomes encapsulating adenosine” (New York University, priority 2019, dated 2023).

Key:
[1] = not given; remark: listed apart in the source

half-life: mere seconds
solubility of adenosine in water [1]: 7000 µg/mL
SMILES: Nc1ncnc2c1ncn2[C@@H]1O[C@H](CO)[C@@H](O)[C@H]1O [adenosine]
